In ChEMBL document CHEMBL1201862, “PubChem BioAssay data set” (2004):
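Protocol summary: plate cells (96-well), add compound at 5 concentrations, incubate 48 h, interpolate endpoints linearly. At the GI50, growth is halved.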 Calls of active or inactive are those of the source. No stated cut-off is given here; in the data, active = GI50 up to about 1.1 µM and inactive = higher.

How the values were obtained:
Assay in all cases: NCI-60 cell line screen, 48 h
CCRF-CEM = test system: CCRF-CEM
SNB-19 = test system: SNB-19
SF-268 = test system: SF-268
K562 = test system: K562
BT-549 = test system: BT-549
SK-MEL-2 = test system: SK-MEL-2
SK-MEL-28 = test system: SK-MEL-28
U-251 = test system: U-251
NCI-H23 = test system: NCI-H23
DU-145 = test system: DU-145
786-0 = test system: 786-0
COLO 205 = test system: COLO 205
UACC-257 = test system: UACC-257
UO-31 = test system: UO-31
PC-3 = test system: PC-3
HCC 2998 = test system: HCC 2998
SK-MEL-5 = test system: SK-MEL-5
OVCAR-4 = test system: OVCAR-4
HT-29 = test system: HT-29
HCT-116 = test system: HCT-116
EKVX = test system: EKVX
SK-OV-3 = test system: SK-OV-3
HL-60 = test system: HL-60
SW-620 = test system: SW-620
TK-10 = test system: TK-10
OVCAR-5 = test system: OVCAR-5
A498 = test system: A498
MDA-N = test system: MDA-N
SNB-75 = test system: SNB-75
UACC-62 = test system: UACC-62
SF-539 = test system: SF-539
HCT-15 = test system: HCT-15
NCI/ADR-RES = test system: NCI/ADR-RES
OVCAR-3 = test system: OVCAR-3
RXF 393 = test system: RXF 393
MDA-MB-231 = test system: MDA-MB-231
T47D = test system: T47D
Malme-3M = test system: Malme-3M
SN12C = test system: SN12C
KM12 = test system: KM12
OVCAR-8 = test system: OVCAR-8
NCI-H226 = test system: NCI-H226
MOLT-4 = test system: MOLT-4
SR = test system: SR
MCF7 = test system: MCF7
NCI-H460 = test system: NCI-H460
NCI-H522 = test system: NCI-H522
Hs-578T = test system: Hs-578T
A549 = test system: A549
LOX IMVI = test system: LOX IMVI
MDA-MB-435 = test system: MDA-MB-435
CAKI-1 = test system: CAKI-1
M14 = test system: M14
RPMI-8226 = test system: RPMI-8226
ACHN = test system: ACHN
HOP-92 = test system: HOP-92
IGROV-1 = test system: IGROV-1
HOP-62 = test system: HOP-62
SF-295 = test system: SF-295

## [O-]/[N+](=N\c1ccccc1CO)c1ccccc1CO
CCRF-CEM
  GI50: > 100 µM (inactive)
SNB-19
  GI50: > 100 µM (inactive)
SF-268
  GI50: > 100 µM (inactive)
K562
  GI50: > 100 µM (inactive)
BT-549
  GI50: > 100 µM (inactive)
SK-MEL-2
  GI50: > 100 µM (inactive)
SK-MEL-28
  GI50: > 100 µM (inactive)
U-251
  GI50: > 100 µM (inactive)
NCI-H23
  GI50: > 100 µM (inactive)
DU-145
  GI50: > 100 µM (inactive)
786-0
  GI50: > 100 µM (inactive)
COLO 205
  GI50: > 100 µM (inactive)
UACC-257
  GI50: > 100 µM (inactive)
UO-31
  GI50: > 100 µM (inactive)
PC-3
  GI50: > 100 µM (inactive)
HCC 2998
  GI50: > 100 µM (inactive)
SK-MEL-5
  GI50: > 100 µM (inactive)
OVCAR-4
  GI50: > 100 µM (inactive)
HT-29
  GI50: > 100 µM (inactive)
HCT-116
  GI50: > 100 µM (inactive)
EKVX
  GI50: > 100 µM (inactive)
SK-OV-3
  GI50: > 100 µM (inactive)
HL-60
  GI50: > 100 µM (inactive)
SW-620
  GI50: > 100 µM (inactive)
TK-10
  GI50: > 100 µM (inactive)
OVCAR-5
  GI50: > 100 µM (inactive)
A498
  GI50: > 100 µM (inactive)
MDA-N
  GI50: > 100 µM (inactive)
SNB-75
  GI50: 84.7 µM (inactive)
UACC-62
  GI50: > 100 µM (inactive)
SF-539
  GI50: > 100 µM (inactive)
HCT-15
  GI50: > 100 µM
NCI/ADR-RES
  GI50: > 100 µM (inactive)
OVCAR-3
  GI50: > 100 µM (inactive)
RXF 393
  GI50: > 100 µM (inactive)
MDA-MB-231
  GI50: > 100 µM (inactive)
T47D
  GI50: > 100 µM (inactive)
Malme-3M
  GI50: > 100 µM (inactive)
SN12C
  GI50: > 100 µM (inactive)
KM12
  GI50: > 100 µM (inactive)
OVCAR-8
  GI50: > 100 µM (inactive)
NCI-H226
  GI50: > 100 µM (inactive)
MOLT-4
  GI50: > 100 µM (inactive)
SR
  GI50: > 100 µM (inactive)
MCF7
  GI50: > 100 µM (inactive)
NCI-H460
  GI50: > 100 µM (inactive)
NCI-H522
  GI50: > 100 µM (inactive)
Hs-578T
  GI50: > 100 µM (inactive)
A549
  GI50: > 100 µM (inactive)
LOX IMVI
  GI50: > 100 µM (inactive)
MDA-MB-435
  GI50: > 100 µM (inactive)
CAKI-1
  GI50: > 100 µM (inactive)
M14
  GI50: > 100 µM (inactive)
RPMI-8226
  GI50: > 100 µM (inactive)

## COc1cc(C(=O)O[C@@H]2[C@@H](OC(=O)c3cc(OC)c(OC)c(OC)c3)[C@@H](OC)O[C@@H]3CO[C@@H](c4ccccc4)O[C@@H]23)cc(OC)c1OC
CCRF-CEM
  GI50: > 100 µM (inactive)
SNB-19
  GI50: > 100 µM (inactive)
SF-268
  GI50: > 100 µM (inactive)
K562
  GI50: > 100 µM (inactive)
BT-549
  GI50: 50.4 µM (inactive)
ACHN
  GI50: > 100 µM (inactive)
SK-MEL-2
  GI50: > 100 µM (inactive)
SK-MEL-28
  GI50: > 100 µM (inactive)
U-251
  GI50: > 100 µM (inactive)
NCI-H23
  GI50: > 100 µM (inactive)
DU-145
  GI50: > 100 µM (inactive)
786-0
  GI50: > 100 µM (inactive)
COLO 205
  GI50: > 100 µM (inactive)
HOP-92
  GI50: > 100 µM (inactive)
UACC-257
  GI50: > 100 µM (inactive)
UO-31
  GI50: > 100 µM (inactive)
PC-3
  GI50: > 100 µM (inactive)
HCC 2998
  GI50: > 100 µM (inactive)
SK-MEL-5
  GI50: > 100 µM (inactive)
OVCAR-4
  GI50: > 100 µM (inactive)
HT-29
  GI50: > 100 µM (inactive)
HCT-116
  GI50: > 100 µM (inactive)
EKVX
  GI50: > 100 µM (inactive)
SK-OV-3
  GI50: > 100 µM (inactive)
HL-60
  GI50: > 100 µM (inactive)
SW-620
  GI50: > 100 µM (inactive)
TK-10
  GI50: > 100 µM (inactive)
OVCAR-5
  GI50: > 100 µM (inactive)
A498
  GI50: > 100 µM (inactive)
MDA-N
  GI50: > 100 µM (inactive)
SNB-75
  GI50: 29.6 µM (inactive)
UACC-62
  GI50: > 100 µM (inactive)
SF-539
  GI50: > 100 µM (inactive)
HCT-15
  GI50: > 100 µM
NCI/ADR-RES
  GI50: > 100 µM (inactive)
OVCAR-3
  GI50: > 100 µM (inactive)
MDA-MB-231
  GI50: > 100 µM (inactive)
T47D
  GI50: > 100 µM (inactive)
Malme-3M
  GI50: > 100 µM (inactive)
IGROV-1
  GI50: > 100 µM (inactive)
SN12C
  GI50: > 100 µM (inactive)
KM12
  GI50: > 100 µM (inactive)
OVCAR-8
  GI50: > 100 µM (inactive)
HOP-62
  GI50: > 100 µM (inactive)
NCI-H226
  GI50: > 100 µM (inactive)
SF-295
  GI50: > 100 µM (inactive)
MOLT-4
  GI50: > 100 µM (inactive)
SR
  GI50: > 100 µM (inactive)
MCF7
  GI50: > 100 µM (inactive)
NCI-H460
  GI50: > 100 µM (inactive)
NCI-H522
  GI50: > 100 µM (inactive)
Hs-578T
  GI50: > 100 µM (inactive)
A549
  GI50: > 100 µM (inactive)
LOX IMVI
  GI50: > 100 µM (inactive)
MDA-MB-435
  GI50: > 100 µM (inactive)
CAKI-1
  GI50: > 100 µM (inactive)
M14
  GI50: > 100 µM (inactive)
RPMI-8226
  GI50: > 100 µM (inactive)
